Measured values: patent US12697328B2, “Methods for treating metastasis with cathepsin C inhibitors” (Shanghai Institute of Nutrition and Health, Chinese Academy …, priority 2020, dated 2026)

Key:
membrane-bound PR3 = biological target: T1, membrane-bound PR3 (Homo sapiens, UniProt P24158); assay: Membrane-bound PR3 activity of neutrophils cultured with CM of SCP28 cells overexpressing CTSC; format: cell-based; details: Sivelestat 10 μM, Alvelestat 10 μM, CTSGi 20 μM, FIG. 7D
T1 construct: endogenous in cells; host or cells: human peripheral-blood neutrophils (whole-cell suspension)
T1 sequence (P24158 28-248): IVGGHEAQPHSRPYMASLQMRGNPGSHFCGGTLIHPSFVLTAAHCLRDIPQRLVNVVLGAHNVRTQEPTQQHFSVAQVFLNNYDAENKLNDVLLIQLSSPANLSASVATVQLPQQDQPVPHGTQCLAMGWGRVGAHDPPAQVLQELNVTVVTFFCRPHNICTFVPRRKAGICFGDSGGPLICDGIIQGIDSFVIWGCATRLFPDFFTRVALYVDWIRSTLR
Method: The procedure of enzyme activity assays were conducted as previously reported (Korkmaz et aL, “Neutrophil proteinase 3 and dipeptidyl peptidase I (cathepsin C) as pharmacological targets in granulomatosis with polyangiitis (Wegener granulomatosis),” Semin. Immunopathol. 35:411-421 (2008)). The PR3 or NE enzymatic activity was quantified by detecting the rate of hydrolysis of the PR3-specific substrate (Abz)-VADnorVADRQ-(EDDnp) or NE specific substrate (Abz)-APEEIMRRQ-(EDDnp) by cell suspension or free enzymes. To analyze membrane-bound PR3 activity, neutrophils were cultured in cancer cell CM or non-conditioned medium, and treated with DMSO or various inhibitors, including Sivelestat (10 μM), Alvelestat (10 μM) and CTSGi (20 μM) for 30-45 min at 37° C. Then, cells were suspended in activity buffer (5×10^6 per ml, PBS, 4 mM EGTA, pH 7.4) with 15 μM of the PR3-specific substrate, and the kinetic of hydrolysis was followed by measuring the fluorescence at λex=320 nm and λem=420 nm. For activation of PR3 in isolated plasma membrane fraction, recombinant human CTSC (1071-CY, R&D) was activated according to the manufacturer's instruction. […] The activity of free PR3 and NE were measured in the assay buffer (50 mM Tris, 750 mM NaCl, pH 7.4) with 15 μM specific substrates by recording the fluorescence at λex=320 nm and λem=420 nm. […]

murine neutrophils = assay: Reactive oxygen species (ROS) analysis of neutrophils pre-treated with 4T07 conditioned medium; format: cell-based; details: 4T07 CM with CTSC overexpressed, inhibitors 10 μM, FIGS. 8C, 8E
Method: To measure the ROS levels, neutrophils were cultured in cancer cell CM or non-conditioned medium, and treated with DMSO or various inhibitors, including Sivelestat (10 μM), BAY11-7082 (10 μM) and SB203580 (10 μM) for 1 h at 37° C. Cells were then harvested and resuspended in assay buffer (PBS, 4 mM EGTA, pH 7.4, containing 10 μM CM-H2DCFDA, Invitrogen), incubated for 15 min at 37° C. in dark, washed with pre-chilled PBS, followed by FACS analysis within 30 min.
The release of reactive oxygen species (ROS) by neutrophils is known to induce NET formation. […] Commum. 6, 6673 (2015).
ROS analysis of murine neutrophils pre-treated with 4T07 conditioned medium show increased ROS production results from CTSC overexpression (FIG. 8E).

CTSC = biological target: T2, CTSC (Homo sapiens, UniProt P53634); assay: CTSC protein expression in metastatic tumor cells; format: cell-based; details: a number of metastatic tumor cell types treated with brensocatib; FIGS. 11A-C
T2 construct: The CTSC protein secretion level in tumor cells with different capabilities of metastasis to various target organs; endogenous in cells; host or cells: metastatic breast cancer cells (MDA-MB-231, SP16, SP16L; bone-metastatic lines) and bone-metastatic lung cancer cells
T2 sequence (P53634 25-463): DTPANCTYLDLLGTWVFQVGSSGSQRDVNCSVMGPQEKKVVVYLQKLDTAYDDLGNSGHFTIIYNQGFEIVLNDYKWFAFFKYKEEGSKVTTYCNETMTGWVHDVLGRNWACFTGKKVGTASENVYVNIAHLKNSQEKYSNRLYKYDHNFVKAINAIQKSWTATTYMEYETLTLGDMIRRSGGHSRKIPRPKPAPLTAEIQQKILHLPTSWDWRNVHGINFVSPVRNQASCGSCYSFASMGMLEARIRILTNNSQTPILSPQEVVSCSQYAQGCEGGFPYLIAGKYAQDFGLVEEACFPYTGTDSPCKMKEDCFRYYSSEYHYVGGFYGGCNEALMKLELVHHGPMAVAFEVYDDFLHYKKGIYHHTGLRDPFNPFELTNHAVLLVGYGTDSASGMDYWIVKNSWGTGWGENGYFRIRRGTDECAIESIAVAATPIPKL
Method: Cultured cells were collected by scraper or trypsinized and then lysed with lysis buffer (50 mM Tris-HCl, 150 mM NaCl, 1% NP-40 detergent, 0.5% sodium deoxycholate, 0.1% SDS with phosphatase and protease inhibitors), and dispersed tissue were homogenized in RIPA buffer on ice for 15 min, followed by centrifugation at 17,000 g for 15 min. The protein concentration was measured with a BCA Protein Assay Kit. Proteins of 10 μg, 80 μg, 30 μg were loaded for membrane proteins, IL-1β processing, p65 phosphorylation and the other assays, respectively, and separated on 8-12% SDS-polyacrylamide gel. For cancer cell conditioned medium (CM) collection, cells were grown to ~80% confluence in 10 cm culture dishes. After three times washing with serum-free medium at 37° C., the cells were incubated in serum-free medium at 37° C. for 24 h. The CM were collected, centrifuged at 2,000 g for 10 min, filtrated by 0.22 μm filters, stored at −80° C. until used. The secreted proteins in CM were collected by TCA precipitation. Briefly, 25% v/v TCA was added into 1 ml CM with phosphatase and protease inhibitors, incubated overnight at 4° C., and then centrifuged at 20,000 g for 60 min, after which the supernatant was discarded and the pellet was washed twice with 1 ml pre-chilled acetone, centrifuged again at 20,000 g for 5 min at 4° C. […]

[1] = tested on: bone-metastatic breast cancer cell SCP2; assay: Tumor sphere formation of bone-metastatic breast cancer cells in neutrophil medium; format: cell-based; details: neutrophils cultured with cancer cell CM with or without brensocatib, FIG. 11E
Method: (§1) The neutrophils are cultured with conditioned medium from the cancer cells with or without brensocatib treatment to activate NETosis, and then the neutrophil medium was used in tumor sphere formation of bone and liver-metastatic breast cancer cells to analyze the effect of neutrophil medium to facilitate tumor cell growth. The data are shown in FIG. 11E for bone-metastatic breast cancer cell SCP2 and FIG. 11H for liver-metastatic breast cancer cell SCP16.

[2] = tested on: liver-metastatic breast cancer cell SCP16; assay: Tumor sphere formation of liver-metastatic breast cancer cells in neutrophil medium; format: cell-based; details: neutrophils cultured with cancer cell CM with or without brensocatib, FIG. 11H
Method: as §1

colon cancer cells SW480 = assay: NET-promoted tumor sphere formation, colon cancer; format: cell-based; details: neutrophil medium, CM with or without brensocatib, FIG. 11K
Method: (§2) To test the therapeutic effects of brensocatib in different cancer types in vitro, the ability of brensocatib to inhibit NET-promoted tumor sphere formation is investigated. The neutrophils are cultured with conditioned medium from tumor cells of colon cancer, liver cancer, lung cancer, gastric cancer and pancreatic cancer with or without brensocatib treatment to activate NETosis, and then the neutrophil medium was used in tumor sphere formation of these cancer cells to analyze the effect of neutrophil medium to facilitate tumor cell growth. The amount of tumorsphere in each sample is then determined by imaging.

[3] = tested on: pancreatic cancer cells KP4; assay: NET-promoted tumor sphere formation, pancreatic cancer; format: cell-based; details: neutrophil medium, CM with or without brensocatib, FIG. 11O
Method: as §2

liver cancer cells HUH7 = assay: Mouse xenograft, liver tumor cells by spleen injection; format: in vivo; details: nude mice
Method: A series of mouse xenograft studies are conducted by injecting liver and pancreatic tumor cells into nude mice by spleen injection. Then the mice are treated by brensocatib, and the growth of the tumors in liver is observed.

upregulated PR3 activity resulting from CTSC overexpression (membrane-bound PR3) | Compound | ROS production / ROS levels (murine neutrophils) | CTSC protein expression (CTSC) | capability of drug-treated neutrophils to facilitate tumor cell growth (tumor sphere formation) [1] | capability of drug-treated neutrophils to facilitate tumor cell growth (tumor sphere formation) [2] | NET-promoted tumor sphere formation (in vitro tumor growth) (colon cancer cells SW480) | NET-promoted tumor sphere formation (in vitro tumor growth) [3] | formation of liver surface nodules (liver cancer cells HUH7; spleen injection of HUH7, FIG. 12B) | tumor growth of liver cancer cells HUH7 in liver (liver cancer cells HUH7; spleen injection, FIG. 12A)
significantly reduces | CC(C)(C)C(=O)Oc1ccc(S(=O)(=O)Nc2ccccc2C(=O)NCC(=O)O)cc1 [Silvelestat] | blocks |  |  |  |  |  |  | 
 | Cn1c(=O)oc2ccc(-c3ccc(C[C@@H](C#N)NC(=O)[C@@H]4CNCCCO4)cc3)cc21 [brensocatib, (2S)—N-{(1S)-1-cyano-2-[4-(3-methyl-2-oxo-2,3-dihydro-1,3-benzoxazol-5-yl)phenyl]ethyl}-1,4-oxazepane-2-carboxamide] |  | significantly reduced | significantly weakened | significantly weakened | inhibit in vitro tumor growth | inhibit in vitro tumor growth | suppresses | significantly inhibits tumor growth
